Results: US8129527B2, “Analogs of dehydrophenylahistins and their therapeutic use” (Nereus Pharmacuticals, Inc., priority 2006, dated 2012)
Where two headings read alike, the source gives them in different places.

Key:
HT-29 human colon tumor = assay: HT-29 Human Colon Tumor Xenograft Model; format: in vivo
Method: (§1) Selected novel compounds were administered as monotherapy via the intraperitoneal (i.p.) route at the doses indicated for the individual study; for the combination studies the selected reference chemotherapy agents were injected 15-30 min prior to the compound.
(§2) Saline dilutions are used to achieve the injection concentrations used for the reference compounds.
Animals were implanted subcutaneously (s.c.) by trocar with fragments of HT-29 tumors harvested from s.c. growing tumors in nude mice hosts. When the tumor size reached 5 mm×5 mm (about 10-17 days) the animals were matched into treatment and control groups. Mice were weighed twice weekly and tumor measurements were obtained using calipers twice weekly, starting on Day 1. The tumor measurements were converted to estimated mg tumor weight using the formula (W^2×L)/2. When the estimated tumor weight of the control group reached an average of 1000 mg the mice were weighed, sacrificed and the tumor removed.

MCF-7 human breast tumor = assay: MCF-7 Human Breast Tumor Xenograft Model; format: in vivo, nude mice; settings: Breast MCF-7 (2 studies); KPU-02 7.5 mg/kg ip qdx5 + Taxotere Days 1, 3, 5
Method: (§3) Animals used were (exceptions are indicated for individual studies): female nude mice (nu/nu) between 5 and 6 weeks of age (˜20 g, Harlan); group size was 9-10 mice per group unless otherwise indicated.
as §1, §2
Female nude mice (˜20 g) were implanted s.c. with 21-day release estrogen (0.25 mg) pellets 24 hours prior to the s.c. implantation with MCF-7 tumor fragments (harvested from s.c. tumors in nude mice hosts). The study then proceeded as described for the HT-29 model, using taxotere as the standard chemotherapy agent.
In this model unless otherwise noted for the individual study, the novel compounds were injected via the intraperitoneal route daily on Days 1-5, inclusive (qdx5); taxotere was administered intravenously on Days 1, 3 and 5 (qodx3).
The doses of the compounds were administered on Days 1, 2, 3, 4, and 7; Taxotere was administered on Days 1, 3 and 7.

[1] = tested on: MDA-231 human breast tumor; assay: MDA-231 Human Breast Tumor Orthotopic Xenograft Model (mammary fat pad); format: in vivo, nude mice; settings: Breast MDA-231 (1 study); KPU-02 7.5 mg/kg ip Days 1, 4, 8, 11, 15 + Paclitaxel qdx5
Method: The animals used were: female nude mice (nu/ni) (MDA-231 study) or B6D2F1 (B16-F10 studies) mice between 5 and 6 weeks of age (˜20 g, Harlan); group size was 10 mice per group unless otherwise indicated.
The cell lines used were: MDA-MB-231 human breast tumor and B16-F10 murine melanoma cells.
NPI compounds were administered as monotherapy via the intraperitoneal route at the doses indicated for the individual study; for the combination studies the selected reference chemotherapy agents were injected 15-30 min prior to the NPI compound.
Female nude mice were injected in the mammary fat pad with 2×10^6 MDA-231 cells harvested from in vitro cell culture. When the tumor size reached 5 mm×5 mm (about 14-28 days) the animals were matched into treatment and control groups. The study then proceeded as described for the HT-29 model, using paclitaxel as the standard chemotherapy agent.
In this model unless otherwise noted for the individual study, the test compounds were administered via the intraperitoneal route on Days 1, 4, 8, 11 and 15 (q3dx5); paclitaxel was administered via the intraperitoneal route on Days 1-5 (qdx5).
This model involves the placement of the human tumor tissue into the mouse mammary fat pad, a surrogate of the natural environment. In this manner the possibility of a positive effect due to a specific action on the subcutaneous vascular bed is avoided.

HuVEC cells = assay: Tubulin staining assay, 200 nM, 30 min (Example 15); format: cell-based, human
Method: Human umbilical vein endothelial cells (HuVECs; Cambrex CC2519A) were maintained at subconfluent densities in EGM-2 (Cambrex) media. […] For tubulin staining assays, HuVEC cells were seeded at a density of 3×10^4 cells/ml in EGM-2 on tissue culture compatible coverslips (Fisher). The plates were returned to the incubator for 2 days.
Stock (20 mM) solutions of the test compounds were prepared in 100% DMSO. 400× concentrated dilutions of the compounds were prepared in 100% DMSO. 5 μl volumes of the dilutions were added to individual wells resulting in a final concentration of 200 nM. […] The plates were returned to the incubator for 30 minutes.
The cells were rinsed in dPBS before fixation in 10% (v/v) neutral buffered formalin for 10 minutes at room temperature. Following fixation, α-tubulin was visualized by indirect immunofluorescence. Specifically, the cells were permeabilized in 0.2% (v/v) triton X-100/dPBS for 10 minutes. The cells were washed prior to transferring the coverslips to a humidified chamber, the coverslips were blocked for two hours in antibody buffer (2% (w/v) BSA/0.1% (v/v) Tween 20/dPBS). The coverslips were incubated with 50 μl of 0.1 μg/ml mouse α-tubulin (Molecular Probes) in antibody buffer for 1 hour before washing and incubation with 50 μl of 1 μg/ml goat anti-mouse FITC (Jackson ImmunoResearch Laboratories) for one hour in the dark. […]

P22 rat sarcoma [2] = format: in vivo, rats; settings: 15 mg/kg IP
Method: In contrast, blood flow in non-tumor tissues was affected to a much lesser extent at 1 hour (see FIG. 35).

[3] = tested on: N202 mammary tumor vasculature; assay: Murine syngeneic pseudo-orthotopic breast cancer model, dorsal skinfold chamber
Source text: A murine syngeneic “pseudo-orthotopic” breast cancer model was used to address these issues. […] To create the “pseudo-orthotopic milieu,” the coverslip of a dorsal skinflap chamber was removed and small pieces of mammary fatpad from donor mice were implanted into the chamber. On top of the fatpad graft, tumor spheroids containing N202 mammary tumor cells transduced with Histone (H2B)-green fluorescent protein (GFP) were applied. The use of H2B-GFP transduced cells allows for visualizing tumor growth and monitoring mitosis and apoptosis.
Fluorescence video microscopy allows for the relatively non-invasive study of tumor microcirculation in conscious mice.
Tumor area, blood flow rate, and vascular density within and surrounding the tumor were visualized. Real-time observations were recorded at various time-points using still photos and video microscopy.

P22 rat sarcoma [4] = assay: Tumor necrosis in the P22 rat sarcoma model; settings: 7.5 and 15 mg/kg IP, 24 hours post-dose
MCF7 cells = assay: Immunofluorescence microscopy of spindle and interphase microtubules; format: cell-based, human; settings: at the IC50 for mitotic block, 20 hours
Method: MCF7 human breast carcinoma cells (American Type Culture Collection, Manassas, Va.) stably transfected with GFP-alpha-tubulin (Clontech, Palo Alto, Calif.) were cultured in Dulbecco's modified Eagle's medium supplemented with 5% fetal bovine serum, 0.1% penicillin/streptomycin and nonessential amino acids (Sigma) in 250-ml tissue culture flasks or 35-mm six-well plates (doubling time, 29 hours) at 37° C. in 5% CO2.
Cells were prepared as for mitotic progression, except that cells were seeded onto poly-L-lysine (50 μg/ml, Sigma) treated coverslips. On the day of staining, cells were rinsed in PBS and fixed in 10% formalin overnight at 37° C. Cells were rinsed in PBS, permeabilized in methanol at −20° C., and hydrated with PBS. Coverslips were treated with 20% normal goat serum in PBS/BSA (1%) for 1 h at room temperature. Cells were incubated in a mouse monoclonal cocktail of anti-alpha- and beta-tubulin, DM1A/DM1B diluted in PBS/BSA for 1 hour at room temperature, then stained with FITC-conjugated secondary antibody and DAPI. Coverslips were mounted using Prolong antifade media (Molecular Probes, Eugene Oreg.).

[5] = tested on: A549 human non small cell lung tumor; assay: A549 Human Lung Tumor Xenograft Model; format: in vivo, nude mice; settings: Lung A549 (1 study); KPU-02 7.5 mg/kg ip qdx5 + Taxotere Days 1, 3, 5
Method: as §3, §1, §2
Animals were implanted s.c. by trocar with fragments of A549 tumors harvested from s.c. growing tumors in nude mice hosts. When the tumor size reached 5 mm×5 mm (about 10-17 days) the animals were matched into treatment and control groups.

MAP-rich microtubules = assay: Microtubule mean length distributions, transmission electron microscopy; format: biochemical, bovine; settings: in words
Method: Transmission electron microscopy was used to determine the mean length distribution of microtubules in the absence or presence of tested agent. At 75 minutes and prior to sedimentation, 10 μl aliquots from the polymer mass experiments were fixed by dilution into 290 μl PEM100-buffered 0.2% glutaraldehyde. Thirty microliters of fixed sample was settled onto formvar-coated 150 ICG mesh electron microscope grids for 90 seconds. Excess sample was wicked off with Whatman filter paper. Thirty microliters of cytochrome C (1 mg/ml) was applied for 30 seconds to enhance protofilament resolution and facilitate negative staining. Uranyl acetate (1.5%) was applied for 20 seconds and the excess was wicked off Grids were viewed in a Jeol electron microscope-1200 EX11 at 2000× and 30,000× magnification. The Zeiss MOPIII was used to determine microtubule length distributions and mean lengths for at least 100 microtubules per sample.

[6] = tested on: MCF7 cells, GFP-alpha-tubulin; assay: Analysis of microtubule dynamics, time-lapse microscopy; format: cell-based, human; settings: concentrations effecting 25% or 50% of maximal mitotic block
[7] = tested on: bovine brain microtubule protein; assay: Tubulin polymerization assay, turbidity (Example 21); format: biochemical; settings: 5 μM in 1% DMSO
Method: Polymerization of bovine brain microtubule protein (Cytoskeleton, Inc., Denver, Colo.) was monitored by an increase in turbidity at 37° C. in microtubule buffer (80 mM PIPES, pH 6.8, 1 mM MgCl2, 1 mM EGTA, 1 mM GTP, 10% glycerol). […] Turbidity was measured as an increase in optical density at 340 nm with a thermo-controlled spectrophotometer (model 680XR microplate Reader™, Bio-Rad Laboratories).

HT-29 human colon cells = assay: Tumor cytotoxicity assay, resazurin fluorescence, 48 h (Example 6); format: cell-based; settings: Example 23
tubulin = tubulin (Bos taurus, UniProt Q6B856); assay: Photoaffinity labeling study of tubulin; format: binding; settings: UV 365 nm, +/- colchicine
Source text: KPU-244 and KPU-244-B1 can both be photoactivated by UV light, resulting in covalent linkage to any protein via the photoreactive benzophenone group. In one embodiment, tubulin is photoaffinity labeled with KPU-244 or KPU-244-B1. Upon irradiation with UV light, the benzophenone group forms a free radical at the carbonyl group, followed by H-abstraction in the acceptor protein, insertion of the benzophenone radical into the abstracted site, and recombination to form the labeled protein.
UV-irradiated and control samples were visualized by 15% SDS-PAGE followed by Western blotting. Biotin-labeled molecular weight markers (Amersham Pharmacia Biotech) were included in each gel. Each gel was electroblotted onto a nitrocellulose membrane (Hybond-ECL, Amersham Pharmacia). The gels were then stained with Coomassie Brilliant Blue (Bio-Rad laboratories) to verify that equivalent amounts of tubulin were loaded in each lane. The nitrocellulose membrane was incubated with 5% skim milk in 100 mM phosphate-buffered saline (PBS, pH 7.4) at room temperature for 1 hour, then washed with 100 mM PBS (pH 7.4) containing 0.1% Tween 20 (PBS-T) for 20 min one time, then twice for 10 min each. The membrane was then incubated with streptavidin-horseradish peroxidase conjugate (diluted 1000-fold with PBS-T) for 1 hour at room temperature, and washed with PBS-T as described above. […]

Chain of tubulin (Q6B856 whole entry): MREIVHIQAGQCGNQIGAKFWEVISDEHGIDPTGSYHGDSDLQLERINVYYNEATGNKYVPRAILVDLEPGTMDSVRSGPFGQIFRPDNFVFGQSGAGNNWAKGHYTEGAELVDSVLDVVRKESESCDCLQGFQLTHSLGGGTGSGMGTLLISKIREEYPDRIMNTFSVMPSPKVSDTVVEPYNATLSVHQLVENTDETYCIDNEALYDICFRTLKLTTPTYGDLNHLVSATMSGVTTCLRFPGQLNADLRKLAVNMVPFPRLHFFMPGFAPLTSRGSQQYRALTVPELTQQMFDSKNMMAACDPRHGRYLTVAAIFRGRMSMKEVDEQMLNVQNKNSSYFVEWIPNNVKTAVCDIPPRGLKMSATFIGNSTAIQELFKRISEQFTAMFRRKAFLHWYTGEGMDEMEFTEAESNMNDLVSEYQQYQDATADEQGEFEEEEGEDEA
Chain of tubulin (P81947 whole entry, further chain): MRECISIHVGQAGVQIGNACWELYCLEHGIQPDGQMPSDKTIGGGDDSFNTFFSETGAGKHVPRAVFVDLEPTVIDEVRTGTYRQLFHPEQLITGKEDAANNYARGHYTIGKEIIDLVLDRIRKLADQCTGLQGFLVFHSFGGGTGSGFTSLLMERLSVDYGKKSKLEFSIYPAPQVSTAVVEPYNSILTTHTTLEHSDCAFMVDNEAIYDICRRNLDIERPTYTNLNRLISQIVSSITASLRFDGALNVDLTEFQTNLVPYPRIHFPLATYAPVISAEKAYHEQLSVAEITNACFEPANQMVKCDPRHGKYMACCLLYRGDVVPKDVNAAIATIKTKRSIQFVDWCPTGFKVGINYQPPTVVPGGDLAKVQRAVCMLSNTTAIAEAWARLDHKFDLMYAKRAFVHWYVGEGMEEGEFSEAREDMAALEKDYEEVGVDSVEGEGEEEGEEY

## CC(C)(C)c1[nH]cnc1/C=c1\[nH]c(=O)/c(=C/c2ccccc2)[nH]c1=O [KPU-02]
HT-29 human colon tumor; ip, 7.5 mg/kg
  Tumor Regression (#/total) NPI + Reference: 4/30
HT-29 human colon tumor; with CPT-11
  dose-dependent effect in the HT-29 model: 7.5 mg/kg was statistically greater than 2.5 mg/kg
MCF-7 human breast tumor
  Tumor Regression (#/total) NPI + Reference: 3/20
[1]
  Tumor Growth Inhibition (%) KPU-02 + Reference: 71%
  Tumor Regression (#/total) NPI + Reference: 0/10
HuVEC cells
  tubulin depolymerization in HuVEC cells: rapidly induce tubulin depolymerization
P22 rat sarcoma [2]; 1 hour after administration
  tumor blood flow: 23 % of vehicle
P22 rat sarcoma [2]; 24 hours later
  tumor blood flow: 59 % vehicle
[3]; i.v. infusion 5-10 mg/kg
  tolerability: well tolerated
[3]; single i.v. treatment
  effect on tumor vasculature: rapid collapse of the central vasculature
P22 rat sarcoma [4]
  tumor necrosis: dose-dependent tumor necrosis
MCF7 cells
  mitotic cells containing asters or foci of tubulin: 75%
[5]
  Tumor Growth Inhibition (%) KPU-02 + Reference: 74%
  Tumor Regression (#/total) NPI + Reference: 0/10
MAP-rich microtubules
  MT nucleation: did not affect MT nucleation
[6]
  MT dynamic instability: did not have a measurable effect on MT dynamic instability

## CC(C)(C)c1ocnc1/C=c1\[nH]c(=O)/c(=C/c2cccc(C(=O)c3ccc(CNC(=O)CCCC[C@@H]4SC[C@@H]5NC(=O)N[C@@H]54)cc3)c2)[nH]c1=O [KPU-244-B1]
[7]
  tubulin polymerization: inhibit tubulin polymerization
HT-29 human colon cells
  IC50: 910 nM
tubulin
  binding to tubulin by photoaffinity labeling: selectively binds and covalently reacts with tubulin at the colchicine binding site
